# Patent US7105485B2, “HO-1 suppressor as a diagnostic and prognostic test for dementing diseases” (The Sir Mortimer B. Davis - Jewish General Hospital, priority 2000, dated 2006)
# Entries after “also recorded” stand apart in the source; their conditions may differ.
# What was measured:
# HO-1 mRNA [1] = experiment: Induction of HO-1 mRNA in rat astroglia by cysteamine treatment (Northern blot); type: cell-based; conditions: rat astroglia grown in standard culture media, CSH 880 μM x 6 hr
# Procedure: (§1) Brain cell cultures: Rat astroglia were prepared as described in Schipper et al. (1999), herein incorporated by reference, as follows:
# (§2) Pregnant Sprague-Dawley rats were obtained from Charles River Breeding Farms. Primary neural cell cultures were prepared from 1-day old neonates by mechanoenzymatic dissociation of cerebral tissue […] as previously described by Chopra et al., (1997), herein incorporated by reference. Cells were grown in Ham's F-12 and high-glucose DMEM (50:50 vol/vol) supplemented with 10 mM HEPES. 5% heat-inactivated horse serum, 5% heat-inactivated fetal bovine serum, and penicillin/streptomycin (50 U/ml and 50 μg/ml, respectively). […] The cultures were then incubated under the above-mentioned conditions for 6 days, at which time >98% of the cells composing the monolayer were astroglia, as determined by immunohistochemical labeling for the astrocyte-specific marker glial fibrillary acidic protein, as described by Chopra et al. (1995), herein incorporated by reference. […]
# (§3) RNA isolation and Northern analysis: Cultured astrocytes were harvested using a rubber policeman, and cytoplasmic RNA was isolated using an acid guanidinium thiocyanate/phenol/chloroform extraction method, as described by Chomczynski and Sacchi (1987), herein incorporated by reference. […] Resulting bands on the autoradiograph were analyzed using a phosphorimager S1 densitometer. […]
# HO-1 mRNA [2] = experiment: HOS bioassay: effect of 24 h pre-incubation with plasma or plasma fractions on the induced HO-1 mRNA response of rat astroglia (Northern blot); type: cell-based; conditions: normal subjects taking antioxidants; vitamin E 400 U/day (N1); multiple very high-dose antioxidants (N2, N3)
# Procedure: as §1, §2, §3
Compound,HO-1 mRNA bands after cysteamine (CSH) treatment (HO-1 mRNA [1]),HO-1 mRNA bands after cysteamine (CSH) treatment (HO-1 mRNA [1]; listed as CSH),astrocyte HO-1 mRNA response to CSH with plasma of normal subjects on antioxidants (HO-1 mRNA [2])
NCCS [Cysteamine],induces strong HO-1 mRNA bands; also recorded: induces robust HO-1 mRNA bands,intense HO-1 mRNA signal,
vitamin E,,,does not affect
